Reference: patent publication US9642859B2, “Use of capsazepine and analogs thereof to treat cancer” (THE BOARD OF REGENTS OF THE UNIVERSITY OF TEXAS SYSTEM, priority 2012, dated 2017)

What was measured:
[1] = tested on: OSCC cell lines (HSC3, SCC4, and SCC25); test: Apoptosis studies, microscopic analysis of OSCC cells; type: cell-based, human; details: CPZ 30, 60 or 90 μM, 24 hrs
Description: FIGS. 1E-1, 1E-2, and 1E-3. […] In FIG. 1E-1, magnifications of (from left to right) vehicle control HSC3 cells (a) and HSC3 cells treated with 30 μM CPZ (b), 60 μM CP(c), or 90 μM CPZ(d). In FIG. 1E-2, magnifications of (from left to right) vehicle control SCC4 cells (a) and SCC4 cells treated with 30 μM CPZ (b), 60 μM CPZ (c), 90 μM CPZ (d), while, in FIG. 1E-3, magnifications of (from left to right) vehicle control SCC25 cells (a) and SCC25 cells treated with 30 μM CPZ (b), 60 μM CPZ (c), or 90 μM CPZ (d).
To determine if reduced cell viability was due to apoptosis, flow-sort analysis and microscopic analysis of cells in three OSCC cell lines (HSC3, SCC4, and SCC25) following treatment were performed. […] (Compare FIGS. 1E-1(b) to (d), FIGS. 1E-2(b)-(d), and FIGS. 1E-3(b) to (d) with FIG. 1E-1(a), FIG. 1E-2(a), and FIG. 1E-3(a), respectively.)

[2] = tested on: CFA-induced mechanical hyperalgesia; details: guinea pigs; cited from earlier work
[3] = tested on: PC3 prostate cancer cells; test: Cell viability assay of PC3 cells with and without NAC; type: cell-based, human; details: PC3 prostate cancer cells, 24 h
SCC25 xenografts = test: OSCC mouse xenograft model, SCC25; type: in vivo, athymic nude (nu/nu) mice
From the text: Animals. Six week-old female athymic nude (nu/nu) mice were purchased from HARLAN Laboratories (Indianapolis, Ind.) and used in a laminar air-flow cabinet under pathogen-free conditions. They were provided with a 12-h light/dark schedule at controlled temperature and humidity with food and water ad libitum. Mice were allowed to acclimate for at least one week prior to the start of the experiments. All procedures were approved by the UTHSCSA (University of Texas Health Science Center—San Antonio) Institutional Animal Care and Use Committee.
OSCC Mouse Xenograft Model. Mice were injected subcutaneously in the right flank with 2×10^6 HSC3, SCC4, or SCC25 cells in 0.1 ml of sterile phosphate buffered saline (each of these cell lines is published in scientific literature). Four weeks post-inoculation, tumors had grown to an average volume of 110 mm^3. […] The injections were repeated every other day and for a total of at least 14 days.
Treatments. CPZ (5 mg) was diluted in 250 μl of 100% DMSO to yield a final concentration of 20 μg/μl of stock solution. Stock solution (100 m) was subsequently diluted in 7% DMSO in sterile saline generating a final concentration of 1 μg/μl. […] Control xenografts were injected intra-tumorally with 40 μl of vehicle control (7% DMSO). Mice were monitored daily for tumor growth, cachexia, and weight loss. Tumor volumes and body weight were recorded every other day. Tumor volumes were calculated by the formula: (4π/3)×(w/2)2×(l/2), where w=width and l=length. Measurements were made using a digital caliper. At the conclusion of the experiments, mice were anaesthetized with isoflurane and cervical dislocation, blood was collected, and the serum was separated and stored at −80° C. until assayed. Biochemical analysis of serum was performed by the Mouse Metabolic Phenotyping Center (Yale School of Medicine, New Haven, Conn.). Tumors were dissected and placed in 10% neutral buffered formalin (SIGMA, St. Louis, Mo.) and processed for histological analysis.

SCC4 = test: Cell cycle analysis by DNA profile FACS, SCC4; type: cell-based, human; details: 24 hours
Description: In particular, Table 1 provides additional cell cycle distribution data of OSCC cells (%) treated with 0 μM, 30 μM, 60 μM, or 90 μM CPZ for 24 hours. Data for OSCC cell lines HSC3, SCC4, and SCC25 are also provided in diagrams of FIGS. 1G-1, 1G-2, and 1G-3, respectively.

[4] = rat model, high intravenous administration dose; cited from earlier work

Oc1cc2c(cc1O)CN(C(=S)NCCc1ccc(Cl)cc1)CCC2 [CPZ, 2-[2-(4-chlorphenyl)ethylamino-thiocarbonyl]-7,8-dihydroxy-2,3,4,5-tetrahydro-1H-2-benzazepine]
apoptosis [1]: undergo apoptosis
CFA-induced mechanical hyperalgesia [2]: Significantly reversed
cytotoxicity [3]: significant dose dependent cytotoxicity
decrease in tumor volume (SCC25 xenografts; 20 μg CPZ (1 μg/μl) injections over two weeks, FIG. 13): 57.5%
healing of xenografts (SCC25 xenografts; 20 μg CPZ intra-tumoral every other day): Nearly complete healing
tumor volume (SCC25 xenografts; 20 μg CPZ intra-tumoral every other day, two weeks, p<0.05): significant reduction in tumor volume
G0/G1 (SCC4; SCC4, CPZ 30 μM): 70.77%
G2/M (SCC4; SCC4, CPZ 30 μM): 12.14%
S (SCC4; SCC4, CPZ 30 μM): 15.08%
SubG1 (SCC4; SCC4, CPZ 30 μM): 2.01%
G0/G1 (SCC4; SCC4, CPZ 60 μM): 21.03%
G2/M (SCC4; SCC4, CPZ 60 μM): 24.21%
S (SCC4; SCC4, CPZ 60 μM): 21.04%
SubG1 (SCC4; SCC4, CPZ 60 μM): 33.72%
G0/G1 (SCC4; SCC4, CPZ 90 μM): 15.61%
G2/M (SCC4; SCC4, CPZ 90 μM): 31.57%
S (SCC4; SCC4, CPZ 90 μM): 24.83%
SubG1 (SCC4; SCC4, CPZ 90 μM): 27.99%
hyperthermia [4]: does not cause hyperthermia
